# Experimental data reported in patent US20250154548A1, “CONTROL OF ENZYMATIC NUCLEIC ACID SYNTHESIS VIA ELECTROCHEMICAL MEANS” (The Charles Stark Draper Laboratory, Inc., priority 2023, published 2025).
# What was measured:
# wild-type TdT = wild-type TdT (Mus musculus, UniProt P09838); experiment: TdT extension assay with DNA-intercalating dye (SYTO 13); type: biochemical; details: metal cofactor MnCl2 pre-incubated with chelator; free nucleotides, ssDNA oligomer
# Procedure: FIG. 14 provides data from an extension assay wherein wild-type TdT is incubated with a single-stranded DNA oligomer in the presence of free nucleotides and a DNA-intercalating dye (SYTO 13). As DNA synthesis occurs, fluorescent signal increases as more interactions of the intercalating dye with the ssDNA leads to higher fluorescent signal.
# [1] = target: T1, TdT-dNTP conjugates (C7-C) (Mus musculus, UniProt P09838, C155A/C188A/C216N/C302P/C378E/C404A/C438A/D179A/D325G/D356E/D411H/D441E/D501E/E183G/E226Q/E418G/E487R/F267Y/F368W/G227E/G413Q/H416D/I229L/K247Q/K250C/K276D/L167K/L260P/L327T/L381Q/M192R/M313Q/M339K/M471L/N304T/Q166K/Q278R/Q287R/Q359K/Q371K/Q390L/R483N/S195A/S223R/S248A/S275E/S282T/S312E/T321Q/T465R/V311I/V320W/V484T); experiment: Bead-based TdT extension assay; type: biochemical; details: for inhibition of TdT extension: various chelator concentrations
# T1 construct: nucleotide (dNTP) covalently tethered through a cleavable linker; That it is dCTP and sits on Cys102 is my inference from the name C7-C and from K102C
# T1 sequence (P09838 149-510 with the stated changes): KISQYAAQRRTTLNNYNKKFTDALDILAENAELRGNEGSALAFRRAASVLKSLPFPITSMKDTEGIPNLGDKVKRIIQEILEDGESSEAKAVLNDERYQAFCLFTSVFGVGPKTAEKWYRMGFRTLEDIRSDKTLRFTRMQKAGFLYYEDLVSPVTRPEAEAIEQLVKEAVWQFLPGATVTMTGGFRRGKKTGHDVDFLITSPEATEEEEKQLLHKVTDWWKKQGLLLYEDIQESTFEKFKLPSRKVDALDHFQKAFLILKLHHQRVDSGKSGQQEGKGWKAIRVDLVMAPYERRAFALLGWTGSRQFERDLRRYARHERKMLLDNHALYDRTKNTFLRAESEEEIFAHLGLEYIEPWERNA
# Procedure: Extension assay was performed for 2 minutes at 37° C.
# The ability of chelators to inhibit stepwise addition of nucleotides via TdT-dNTP conjugates was tested using a bead based assay: Magnetic beads (Dynabeads MyOne streptavidin beads (C1)) were functionalized with biotinylated, double-stranded DNA (dsDNA) that contains a 3′ 30-base overhang, which serves as the seed oligo for extension. Beads were prepared in buffer (20 mM potassium phosphate, 100 mM NaCl, pH 6.5) and washed with 3 times with Superblock prior to use. TdT-dNTP conjugates were prepared at 10 μM concentrations in buffer solution (20 mM potassium phosphate buffer, 100 mM NaCl, pH 6.5). Chelators and MnCl2 solutions were prepared at appropriate ratios (in water) so that final reaction concentrations were at 125 nM in MnCl2 and incubated for 10 minutes at room temperature. Once incubation was complete, TdT-dNTP conjugates were added to the chelator/MnCl2 solutions so that TdT-dNTP conjugates were at a final concentration of 5 μM. As controls, solutions with no chelator or with TCEP (for recovery activity) were also prepared.
# Once all reagents were prepared, ds-DNA functionalized beads (10 μL volume) were added to low-bind Eppendorf tubes, followed by the TdT-dNTP conjugate/chelator/MnCl2 solution (50 μL total reaction volume). The tubes were incubated at 37° C. for 2 min, then tubes were placed on ice for 1 min. The beads were washed by placing tubes on a magnetic tube rack three times with 1 mL of buffer (20 mM potassium phosphate, 100 mM NaCl, pH 6.5). To elute the ssDNA from the washed beads, the tubes were placed in the magnetic rack, and the supernatant was removed and replaced with 0.1 M NaOH (aq). After thorough mixing with a pipette and re-settling of the beads using the magnetic rack, the supernatant was transferred to a fresh low-bind tube, and 50 μL of 0.1 M HCl (aq) was added to neutralize the solution.
# Sequencing sample preparation began with polyadenylation (for sequences expected to end in thymine, cytosine, or guanine) or the addition of a poly(T) tail (for sequences expected to end in adenine) to the 3′ end of each DNA sample using commercial TdT. The samples were then amplified using primers that bind to a conserved 5′ sequence and the complementary 3′ tail while incorporating Illumina sequencing priming sites into the synthesized amplicons. This step was performed using qPCR in order to achieve optimal amplification of all samples regardless of input DNA concentration. A portion of each PCR product was analyzed by gel electrophoresis to confirm the size and relative abundance of the amplicons. The products of all samples were then normalized based on relative abundance and used as template for a second PCR reaction, which incorporated Illumina flow cell adaptors and a variable index into each sample. The products of the final PCR reaction were characterized by gel electrophoresis and all indexed samples were pooled together proportionally based on relative abundance. Size selection and purification of the pooled library was performed by DNA gel extraction and the final library was analyzed by Qubit dsDNA HS assay and Tapestation D1000 screentape to determine the final molar concentration. The library was then diluted, denatured and sequenced following standard Illumina protocols.
# [2] = FLPA fluorescence intensity versus bulk electrolyte pH calibration; type: physicochemical; details: from fluorescence intensity vs pH
# From the text: FIGS. 3A-C show how voltage-induced pH change can be visualized in real-time with a freely diffusing non-electroactive fluorescent probe. […] A large Pt counter electrode (CE, anode) surrounds a smaller Pt working electrode (WE, cathode). The two electrodes are separated by a 10 μm dielectric SiO2 region. The WE (410 μm×510 μm) contains a microarray of 300-nm diameter wells that cannot be optically resolved but appear as a smaller square region (˜250 μm×325 μm), made brighter by optical interference. The microarray is used as the region of interest (ROI) for all subsequent analysis. Images were acquired with an Excelitas X-Cite Xylis XT720S (360-720 nm LED) source, 1s exposure time, and GFP (525/50 nm) filter set.
# Data points represent the average of three technical replicates, and error bars represent one standard deviation. The intensity follows a sigmoidal relationship as the fraction of deprotonated, fluorescent FLPA (inset) increases with pH (pKa˜6.5). Thus, FLPA is sensitive to an acid-OFF/neutral-ON pH switch over pH 5 to 8. The visualization strategy is amenable to other non-electroactive probes with different pKa values.
# [3] = 5 μM C7-C, 0.250 mM Mn2+, 2 minutes at 37° C.
# Chain of wild-type TdT (P09838 149-510): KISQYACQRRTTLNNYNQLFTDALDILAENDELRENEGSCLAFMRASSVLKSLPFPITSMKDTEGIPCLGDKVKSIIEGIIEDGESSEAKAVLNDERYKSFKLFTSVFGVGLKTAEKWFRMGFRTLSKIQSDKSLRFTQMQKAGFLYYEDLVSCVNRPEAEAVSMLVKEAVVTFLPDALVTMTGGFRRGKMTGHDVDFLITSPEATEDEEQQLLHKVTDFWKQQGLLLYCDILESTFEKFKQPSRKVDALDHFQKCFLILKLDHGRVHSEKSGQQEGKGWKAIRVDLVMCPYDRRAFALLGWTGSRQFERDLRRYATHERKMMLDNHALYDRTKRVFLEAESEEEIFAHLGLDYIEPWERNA
pKa [2],SMILES,assayed ssDNA growth (fluorescent signal) (wild-type TdT),"TdT activity with chelator pre-incubated with reducing agent TCEP ([1]; TCEP reducing agent added, chelator cleaved)","inhibition of TdT extension [1, 3]","fraction of extended sequences ([1]; various chelator:metal ratios, 5 μM C7-C, 0.250 mM Mn2+, 2 minutes at 37° C.)"
,"O=C(NCCc1ccc(O)c(O)c1)OCCSSCCOC(=O)NCCc1ccc(O)c(O)c1 [catechol 1, disulfanediylbis(ethane-2,1-diyl) bis((3,4-dihydroxyphenethyl)carbamate)]",no assayed ssDNA growth is observed,TdT activity is recovered,inhibition dependence on feed ratio of metal to inhibitor and choice of chelator,
,"O=C(O)CN(CC(=O)O)C(=O)OCCSSCCOC(=O)N(CC(=O)O)CC(=O)O [tetraacid 2, 3,14-bis(carboxymethyl)-4,13-dioxo-5,12-dioxa-8,9-dithia-3,14-diazahexadecanedioic acid]",no assayed ssDNA growth is observed,,inhibition dependence on feed ratio of metal to inhibitor and choice of chelator,
,"c1ccc(SSc2ccccn2)nc1 [DTP, 2,2′-dithiopyridine, reference compound]",,,inhibition dependence on feed ratio of metal to inhibitor,
,"O=C(O)CN(CCN(CC(=O)O)CC(=O)O)CC(=O)O [EDTA, Ethylenediaminetetraacetic Acid, reference compound]",little-to-no-assayed ssDNA growth,,,markedly decreased
~6.5,"NCCOCCOCCOCCOCCOCCOCCNC(=S)Nc1ccc2c(c1)C(=O)OC21c2ccc(O)cc2Oc2cc(O)ccc21 [FLPA, fluorescein-PEG6-amine]",,,,
